The source made the active and inactive calls. No cut-off for these calls is given here.
Tests used:
HCT-116 [1] = assay: Induction of apoptosis in human HCT-116 cells assessed as early apoptotic cells at 0.4 uM incubated for 24 hrs by PI staining based flow cytometry (reference value: 0.19 %); type: functional
MCF7 = assay: Antiproliferative activity against human MCF7 cells assessed as cell growth inhibition incubated for 48 hrs by MTT assay; type: functional, cell-based; conditions: MCF7, 48 h
HCT-116 [2] = assay: Induction of cell cycle arrest in human HCT-116 cells assessed as accumulation at S phase at 0.2 uM incubated for 24 hrs by PI staining based flow cytometry (reference value: 20.82 +/- 1.24 %); type: functional
[3] = target: Cyclin-dependent kinase 7/ cyclin H (Homo sapiens, UniProt P50613); assay: Inhibition of CDK7/cyclin H (unknown origin) using […] incubated for 40 mins in presence of ATP by Kinase-Glo assay; type: protein-complex assay
Cyclin-dependent kinase 7/ cyclin H, sequence (P51946 whole entry): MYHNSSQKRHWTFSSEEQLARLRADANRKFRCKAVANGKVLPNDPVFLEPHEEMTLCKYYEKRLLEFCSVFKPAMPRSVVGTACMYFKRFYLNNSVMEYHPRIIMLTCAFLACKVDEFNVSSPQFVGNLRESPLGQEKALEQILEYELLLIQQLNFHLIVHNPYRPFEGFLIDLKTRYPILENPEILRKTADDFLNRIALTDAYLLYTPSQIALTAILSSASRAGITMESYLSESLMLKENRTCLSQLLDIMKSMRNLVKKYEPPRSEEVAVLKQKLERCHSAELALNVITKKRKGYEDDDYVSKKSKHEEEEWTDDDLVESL
Cyclin-dependent kinase 7/ cyclin H, sequence (P50613 whole entry): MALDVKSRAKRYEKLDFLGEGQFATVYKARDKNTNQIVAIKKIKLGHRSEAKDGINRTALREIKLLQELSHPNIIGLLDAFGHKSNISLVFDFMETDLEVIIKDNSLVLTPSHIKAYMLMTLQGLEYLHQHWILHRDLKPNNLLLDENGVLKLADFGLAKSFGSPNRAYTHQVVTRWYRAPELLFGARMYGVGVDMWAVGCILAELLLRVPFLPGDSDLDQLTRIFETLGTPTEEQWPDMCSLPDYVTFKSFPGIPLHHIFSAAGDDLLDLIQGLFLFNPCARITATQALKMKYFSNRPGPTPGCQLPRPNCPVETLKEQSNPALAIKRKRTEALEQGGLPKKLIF

HepG2 = assay: Antiproliferative activity against human HepG2 cells assessed as cell growth inhibition incubated for 48 hrs by MTT assay; type: functional, cell-based; conditions: HepG2, 48 h
[4] = Oral bioavailability in Sprague-Dawley rat at 10 mg/kg measured for 36 hrs by MRM analysis; type: ADME, organism-based; conditions: in vivo
HCT-116 [5] = assay: Antitumor activity against human HCT-116 cells xenografted in Balb/c-nu nude mouse at 70 mg/kg/day, po treated for 7 days consecutively relative to control; type: functional; conditions: HCT-116, 168 h, time 7 day, read-out: TGI
HeLa [6] = assay: Induction of apoptosis in human HeLa cells assessed as increase in cleaved PARP level upto 3.6 uM incubated for 24 hrs by Western blot analysis; type: functional, cell-based
HCT-116 [7] = assay: Induction of apoptosis in human HCT-116 cells assessed as late apoptotic cells at 0.8 uM incubated for 24 hrs by PI staining based flow cytometry (reference value: 1.11 %); type: functional
[8] = Half life in Sprague-Dawley rat at 10 mg/kg, po measured for 36 hrs by MRM analysis; type: ADME, organism-based; conditions: in vivo
HCT-116 [9] = assay: Induction of apoptosis in human HCT-116 cells assessed as early apoptotic cells at 0.2 uM incubated for 24 hrs by PI staining based flow cytometry (reference value: 0.19 %); type: functional
HCT-116 [10] = assay: Induction of cell cycle arrest in human HCT-116 cells assessed as accumulation at G1/G0 phase at 0.8 uM incubated for 24 hrs by PI staining based flow cytometry (reference value: 58.29 +/- 2.01 %); type: functional
HeLa [11] = assay: Effect on Bax level in human HeLa cells upto 3.6 uM incubated for 24 hrs by Western blot analysis; type: functional, cell-based
HeLa [12] = assay: Induction of apoptosis in human HeLa cells assessed as necrotic cells at 1.8 uM incubated for 24 hrs by PI staining based flow cytometry (reference value: 25.5 %); type: functional
HeLa [13] = assay: Induction of cell cycle arrest in human HeLa cells assessed as accumulation at G2/M phase at 0.9 uM incubated for 24 hrs by PI staining based flow cytometry (reference value: 24.6 +/- 1.11 %); type: functional
HCT-116 [14] = assay: Induction of apoptosis in human HCT-116 cells assessed as viable cells at 0.8 uM incubated for 24 hrs by PI staining based flow cytometry (reference value: 79.4 %); type: functional; conditions: read-out: Activity
[15] = Selectivity index, ratio of IC50 for CDK1/cyclin B (unknown origin) using […] to IC50 for CDK2/cyclin A (unknown origin) using […]
[16] = Clearance in Sprague-Dawley rat at 2 mg/kg, iv measured for 36 hrs by MRM analysis; type: ADME, organism-based; conditions: in vivo
U-87 MG = assay: Antiproliferative activity against human U-87 MG cells assessed as cell growth inhibition incubated for 48 hrs by MTT assay; type: functional, cell-based, U-87MG ATCC
[17] = target: Cyclin-dependent kinase 4/cyclin D1 (Homo sapiens, UniProt P11802); assay: Inhibition of CDK4/cyclin D (unknown origin) using […] incubated for 40 mins in presence of ATP by Kinase-Glo assay; type: protein-complex assay
Cyclin-dependent kinase 4/cyclin D1, sequence (P11802 whole entry): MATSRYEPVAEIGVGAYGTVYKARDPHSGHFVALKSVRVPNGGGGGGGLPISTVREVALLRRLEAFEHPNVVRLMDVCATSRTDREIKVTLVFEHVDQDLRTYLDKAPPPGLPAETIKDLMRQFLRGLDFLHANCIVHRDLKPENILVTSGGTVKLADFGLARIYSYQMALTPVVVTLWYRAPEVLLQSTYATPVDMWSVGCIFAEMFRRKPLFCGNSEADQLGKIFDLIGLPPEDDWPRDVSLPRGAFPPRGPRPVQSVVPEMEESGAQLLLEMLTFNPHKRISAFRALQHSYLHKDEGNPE
Cyclin-dependent kinase 4/cyclin D1, sequence (P24385 whole entry, further chain): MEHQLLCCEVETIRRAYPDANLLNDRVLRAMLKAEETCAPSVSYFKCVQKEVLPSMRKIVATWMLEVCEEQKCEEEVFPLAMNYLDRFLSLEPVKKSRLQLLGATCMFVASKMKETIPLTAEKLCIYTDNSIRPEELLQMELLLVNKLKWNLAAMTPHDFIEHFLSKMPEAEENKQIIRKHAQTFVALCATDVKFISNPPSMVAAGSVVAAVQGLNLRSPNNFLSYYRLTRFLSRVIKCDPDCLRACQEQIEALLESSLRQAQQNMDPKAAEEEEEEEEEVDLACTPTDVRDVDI

HeLa [18] = assay: Induction of apoptosis in human HeLa cells assessed as late apoptotic cells at 1.8 uM incubated for 24 hrs by PI staining based flow cytometry (reference value: 3.85 %); type: functional
HCT-116 [19] = assay: Induction of cell cycle arrest at G2/M phase in human HCT-116 cells assessed as decrease in p-Cdc2 level incubated for 48 hrs by Western blot analysis; type: functional, cell-based; conditions: dose <= 0.8 µM
HeLa [20] = assay: Induction of cell cycle arrest in human HeLa cells assessed as accumulation at S phase at 3.6 uM incubated for 24 hrs by PI staining based flow cytometry (reference value: 17.84 +/- 1.89 %); type: functional
HCT-116 [21] = assay: Effect on Bax level in human HCT-116 cells upto 0.8 uM incubated for 24 hrs by Western blot analysis; type: functional, cell-based
[22] = Cmax in Sprague-Dawley rat at 10 mg/kg, po measured for 36 hrs by MRM analysis; type: ADME, organism-based; conditions: in vivo
[23] = Clearance in Sprague-Dawley rat at 10 mg/kg, po measured for 36 hrs by MRM analysis; type: ADME, organism-based; conditions: in vivo
HeLa [24] = assay: Induction of cell cycle arrest at G2/M phase in human HeLa cells assessed as decrease in cyclin B1 level incubated for 48 hrs by Western blot analysis; type: functional, cell-based; conditions: dose <= 3.6 µM
HCT-116 [25] = assay: Induction of apoptosis in human HCT-116 cells assessed as necrotic cells at 0.2 uM incubated for 24 hrs by PI staining based flow cytometry (reference value: 18.9 %); type: functional
HeLa [26] = assay: Induction of cell cycle arrest in human HeLa cells assessed as accumulation at G2/M phase at 1.8 uM incubated for 24 hrs by PI staining based flow cytometry (reference value: 24.6 +/- 1.11 %); type: functional
HeLa [27] = assay: Induction of apoptosis in human HeLa cells assessed as viable cells at 0.9 uM incubated for 24 hrs by PI staining based flow cytometry (reference value: 68.9 %); type: functional; conditions: read-out: Activity
HCT-116 [28] = assay: Induction of apoptosis in human HCT-116 cells assessed as necrotic cells at 0.4 uM incubated for 24 hrs by PI staining based flow cytometry (reference value: 18.9 %); type: functional
[29] = MRT (0 to t) in Sprague-Dawley rat at 2 mg/kg, iv measured for 36 hrs by MRM analysis; type: ADME, organism-based; conditions: in vivo
[30] = target: Cyclin-dependent kinase 9 (Homo sapiens) (UniProt P50750); assay: Inhibition of CDK9 in human HCT-116 cells assessed as reduction in Rpb1 phosphorylation at Ser2/5 incubated for 24 hr s by Western blot analysis; type: cell-based; conditions: dose <= 0.8 µM
Cyclin-dependent kinase 9 (Homo sapiens), sequence (P50750 whole entry): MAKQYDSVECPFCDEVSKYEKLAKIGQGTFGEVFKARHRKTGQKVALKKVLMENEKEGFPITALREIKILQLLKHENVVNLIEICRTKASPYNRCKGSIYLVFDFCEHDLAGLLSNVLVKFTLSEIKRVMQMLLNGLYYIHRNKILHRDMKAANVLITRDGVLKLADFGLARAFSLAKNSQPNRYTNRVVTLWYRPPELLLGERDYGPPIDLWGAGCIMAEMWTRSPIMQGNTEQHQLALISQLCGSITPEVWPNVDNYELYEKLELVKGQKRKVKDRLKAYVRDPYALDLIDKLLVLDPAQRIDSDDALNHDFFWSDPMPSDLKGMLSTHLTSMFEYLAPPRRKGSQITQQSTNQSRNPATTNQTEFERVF

[31] = Antiproliferative activity against HEK293 cells assessed as cell growth inhibition incubated for 48 hrs by MTT assay; type: toxicity, cell-based; conditions: human
HeLa [32] = assay: Induction of apoptosis in human HeLa cells assessed as decrease in Bcl-2 level upto 3.6 uM incubated for 24 hrs by Western blot analysis; type: functional, cell-based
[33] = Apparent volume of distribution in Sprague-Dawley rat at 2 mg/kg, iv measured for 36 hrs by MRM analysis; type: ADME, organism-based; conditions: in vivo, read-out: Vz
HCT-116 [34] = assay: Induction of cell cycle arrest in human HCT-116 cells assessed as accumulation at S phase at 0.8 uM incubated for 24 hrs by PI staining based flow cytometry (reference value: 20.82 +/- 1.24 %); type: functional
HCT-116 [35] = assay: Induction of apoptosis in human HCT-116 cells assessed as viable cells at 0.4 uM incubated for 24 hrs by PI staining based flow cytometry (reference value: 79.4 %); type: functional; conditions: read-out: Activity

- IC50 (MCF7): 3640 nM
- IC50 [3]: 215 nM
- IC50 (HepG2): 2090 nM
- bioavailability [4]: 86.7%
- half-life [8]: 4 h
- Ratio IC50 [15]: 13
- CL [16]: 1130 mL/min/kg
- IC50 (U-87 MG): 1010 nM
- IC50 [17]: 942 nM
- Cmax [22]: 21.1 ng/mL
- CL/F [23]: 1180 mL/min/kg
- MRT last at 36 h [29]: 2.7 h
- inhibition [30]: Dose-dependent-effect
- Vd [33]: 275 L/kg
Compound: Cc1cnc(Nc2ccc(S(N)(=O)=O)cc2)nc1Nc1nccs1
- Activity (HCT-116 [1]): 17.9%
- Activity (HCT-116 [2]): 22.83%
- inhibition in vivo at 70 mg/kg/day (HCT-116 [5]): 67%
- Activity (HeLa [6]): Active
- Activity (HCT-116 [7]): 27.7%
- Activity (HCT-116 [9]): 2%
- Activity (HCT-116 [10]): 43.88%
- Activity (HeLa [11]): No effect
- Activity (HeLa [12]): 0.22%
- Activity (HeLa [13]): 26.41%
- viability at 0.8 µM (HCT-116 [14]): 52.8%
- Activity (HeLa [18]): 25.9%
- Activity (HCT-116 [19]): Dose-dependent-effect
- Activity (HeLa [20]): 17.55%
- Activity (HCT-116 [21]): No effect
- Activity (HeLa [24]): Dose-dependent-effect
- Activity (HCT-116 [25]): 3.6%
- Activity (HeLa [26]): 30.58%
- viability at 0.9 µM (HeLa [27]): 29.1%
- Activity (HCT-116 [28]): 4.8%
- IC50 at 48 h [31]: 90100 nM
- Activity (HeLa [32]): Active
- Activity (HCT-116 [34]): 20.18%
- viability at 0.4 µM (HCT-116 [35]): 54.4%

— ChEMBL document CHEMBL6096697, “Structure-Guided Discovery of Novel N4-(Substituted Thiazol-2-yl)-N2-(4-Substituted phenyl)pyrimidine-2,4-Diamines as Potent CDK2 and CDK9 Dual Inhibitors with High Oral Bioavailability” (J Med Chem, 2025)
